This is an account of results in patent US7763580B2, “Methods for treating conditions associated with the accumulation of excess extracellular matrix” (University of Utah Research Foundation, priority 1999, dated 2010).

In one assay the test system is anti-Thy 1 model. As to conditions: monotherapy, anti-Thy 1 model (Peters et al.); L-arginine 1% in drinking water; cited from earlier work.
In assay [1] the test system is adult human mesangial cells. Put plainly: Renin-induced TGFβ and fibronectin production by adult human mesangial cells (ELISA). Format: cell-based. As to conditions: for renin-induced increase in TGFβ production: 10^−5 M inhibitor added at zero time with 10^−7 M human recombinant renin, adult cells, FIG. 7. Here is the method: Primary cultures of adult human mesangial cells were grown from human nephrectomy tissues using standard methods. Cells were passaged 4-7 times and then plated (3,000 cell/cm^2) in 12 well plates in 2 ml of medium (Mesangial Basal Medium (Clonetics Corp.) containing 5% FCS, 10 μg/ml penicillin and 100 μg/ml streptomycin) and allowed to grow to 70% confluency for 48 hours at 37EC, 5% CO2. Cultures were washed three times using sterile phosphate buffered saline at room temperature and then 2 ml/well of serum free MBM medium to induce quiescence. After 48 hours, the serum-free medium was removed and 2 ml/well of fresh serum-free medium was added for 24 hours. Human recombinant renin (HrRenin, Hoffman-La Roche Ltd., Basel, Switzerland) in concentrations from 10^−6 to 10^−12 M was added to each well for 24 hours. A blank (no HrRenin) was used as a control. Cells and supernatants were harvested by centrifugation after 24 hrs of culture and frozen at ^−70EC until analysis.
The total production and release of TGFβ into the culture supernatant was measured using an ELISA kit (R & D Systems). Induction of the matrix protein fibronectin (Fn) in the supernatant was measured using anti-fibronectin antibodies in an ELISA to provide further confirmation of induction of TGFβ. Renin-induced induction of TGFβ, fibronectin and PAI-1 mRNA were measured over time using semi-quantitative RT-PCR in a multiplex system where multiple cDNAs are amplified simultaneously according to Dostal et al., Anal. Biochem. 223:239-250 (1994), incorporated by reference herein Determinations were done in triplicate mesangial cell cultures.
(§1) Renin inhibitor Ro42-5892 (Hoffman-LaRoche, Basel, Switzerland), Losartan™ (Merck Pharmaceuticals, West Point, Pa.), Enalapril™ (Sigma Chemical Co., St. Louis, Mo., Prod. No. E6888), or TGFβ1 neutralizing antibody (R & D Systems) were added in the amounts indicated below to separate wells in triplicate to block the renin cascade at different sites after stimulation by renin: • 10^−5 M Renin Inhibitor R042-5892 (Hoffman-LaRoche) • 10^−5 M Enalapril™ (Sigma Chemical Co., St. Louis, Mo.) • 10^−5 M Losartan™ (Merck Pharmaceuticals, West Point, Pa.) • Controls included neutralizing antibody to TGFβ (ATG) and control IgG (TgG)
(§2) These inhibitors were added at zero time with 10^−7 M human recombinant renin (Hoffman-LaRoche).
(In an ELISA, binding on a coated surface is turned into a signal by an enzyme label.)

In assay [2] the test system is Normal fetal human mesangial cells. Briefly: Renin-induced TGFβ production by fetal human mesangial cells (ELISA). Format: cell-based. As to conditions: for renin-induced increase in TGFβ production: 10^−5 M inhibitor added at zero time with 10^−7 M human recombinant renin, FIG. 3. Here is the method: Normal fetal human mesangial cells (Clonetics Corp., Clonetics, Walkersville, Md.) passaged 5 to 8 times, were plated (3,000 cell/cm^2) in 12 well plates in 2 ml of medium (Mesangial Basal Medium (Clonetics Corp.) containing 5% FCS, 10 μg/ml penicillin and 100 μg/ml streptomycin) and allowed to grow to confluence for 48 hours at 37EC, 5% CO2. Cultures were washed three times using sterile phosphate buffered saline at room temperature and then 2 ml/well of serum free MBM medium to induce quiescence. After 48 hours, the serum-free medium was removed and 2 ml/well of fresh serum-free medium was added. Human recombinant renin (Hoffman-La Roche Ltd., Basel, Switzerland) in concentrations from 10^−6 to 10^−12 M was added to each well. A blank and 5 ng/ml of TGFβ (R & D Systems, Minneapolis, Minn.) were used as controls. Cells and supernatants were harvested by centrifugation after 24 hrs of culture and frozen at ^−70EC until analysis. The total production and release of TGFβ into the culture supernatant was measured using an ELISA kit (R & D Systems). Induction of PAI-1 and fibronectin in the supernatant are also measured using anti-PAI-1 and anti-fibronectin antibodies in an ELISA to provide further confirmation of the inhibition of TGFβ. TGFβ, fibronectin and PAI-1 mRNA are measured using semi-quantitative RT-PCR.
as §1, with “(Hoffman-LaRoche) • 30 ng/ml Anti-TGFβ1 antibody (R & D Systems, #AB 101 NA) • 30 ng/ml Chicken IgG (control for anti-TGFβ1 antibody, R & D Systems, # AB 101 C) • 10^−5 M” for “(Hoffman-LaRoche) • 10^−5 M”, “Point, Pa.)” for “Point, Pa.) • Controls included neutralizing antibody to TGFβ (ATG) and control IgG (TgG)”
as §2

Assay [3] concerns anti-Thy-1 nephritis. Put plainly: Glomerular mRNA levels after rtPA in anti-Thy-1 nephritis. Format: in vivo, Sprague-Dawley rats. As to conditions: rtPA treated, day 6, FIG. 10. As to the method:
(§3) Six Sprague-Dawley rats with were injected with phosphate buffered saline (PBS, as a control) and 18 rats were injected with 300 ug of mouse monoclonal OX7 antibody produced in the laboratory using commercially obtained hybridoma cells (American Type Culture Collecton (Rockville, Md., USA; Peters et al., Kidney Internatl. 54:1570-1580 (1998)) on day 1 to induce anti-Thy-1 nephritis. Injection of the anti rat-thymocyte antibody intravenously causes binding to an epitope in rat glomerular mesangial cells call Thy 1.1. The complement-mediated mesangial cell lysis that follows initiates a cascade of tissue injury, followed by a repair process that involves induction of TGFβ-driven production and deposition of ECM components. […] These alterations favor decreased plasmin generation which decreases matrix turnover and enhances matrix accumulation. Plasmin is the key to mesangial cell matrix turnover (Baricos et al, Kidney Int. 47:1037-1047 (1995)).
Three days after the initial injection, rtPA (Genentech, Inc., San Francisco, Calif.) in a formulation designed for rodent intravenous injection (GenBank E08757) or PBS was injected intravenously. Injections were repeated twice a day from day 3 to day 5. […] Glomerular staining for ECM matrix proteins (collagen type I and III, fibronection EDA+ and tenascin) and glomerular mRNA levels of TGFβ1, fibronectin and PAI-1 were evaluated at day 6. […]

The test system of the next assay is nephritic glomeruli. Put plainly: Plasmin generation by isolated nephritic glomeruli after rtPA injection. Format: in vivo, rats. As to conditions: rtPA injected 10, 20 and 30 minutes before sacrifice; vs disease control. Here is the method:
rtPA was injected into nephritic rats 10, 20 and 30 minutes before sacrifice. At sacrifice, glomeruli were isolated and placed in culture with a chromogenic substrate for tPA.

The subject of assay [4] is anti-Thy-1 nephritis. Briefly: Glomerular ECM staining after rtPA in anti-Thy-1 nephritis. Format: in vivo, Sprague-Dawley rats. Here is the method:
as §3
Three days after the initial injection, rtPA (Genentech, Inc., San Francisco, Calif.) in a formulation designed for rodent intravenous injection (GenBank E08757) or PBS was injected intravenously. Injections were repeated twice a day from day 3 to day 5. RtPA was injected i.v. at a dose of 1 mg/kg BW (n'6). Controls received saline (n'6). Glomerular staining for ECM matrix proteins (collagen type I and III, fibronection EDA+ and tenascin) and glomerular mRNA levels of TGFβ1, fibronectin and PAI-1 were evaluated at day 6. Localization of rtPA in nephritic glomeruli and the effect of rtPA on glomerular plasmin were investigated. Rats were sacrificed at day 6 and kidney tissues excised, fixed in formalin and frozen for histological analysis.
Kidney tissue sections were stained for extracellular matrix using Periodic Acid Schiff (PAS) using standard procedures and were stained for specific relevant matrix proteins such as Collagen I, Collagen IV, Fibronectin EDA and tenascin using standard immunohistochemical staining procedures. Matrix proteins were scored by image analysis of 30 glomeruli per rat.

The mark [5] stands for this setting: 10^−6M HrRenin, 24 hours, peak of dose response, p<0.05.

Take `N=C(N)NCCC[C@H](N)C(=O)O` [L-arginine]: the “reduction of markers of fibrotic disease” value in the assay with anti-Thy 1 model is “about 50%”.

Turning to `CCCCc1nc(Cl)c(CO)n1Cc1ccc(-c2ccccc2-c2nn[nH]n2)cc1` [Losartan], the “reduction of markers of fibrotic disease” value in the assay on anti-Thy 1 model is recorded as “about 50%”. The “renin-induced increase in TGFβ production” value in assay [1] and in assay [2] was “does not reduce the renin-induced increase in TGFβ production” throughout.

For `CC(C)(C)S(=O)(=O)C[C@@H](Cc1ccccc1)C(=O)N[C@@H](Cc1c[nH]cn1)C(=O)N[C@@H](CC1CCCCC1)[C@@H](O)[C@@H](O)C1CC1` [Ro 42-5892], the “renin-induced increase in TGFβ production” value in assay [1] and in assay [2] was “does not reduce the renin-induced increase in TGFβ production” throughout.

In the case of “rtPA: recombinant tissue type plasminogen activator (Genentech)”, the “Glomerular levels of TGFβ1, FN and PAI-1 mRNA” value in the assay with anti-Thy-1 nephritis [3] is on record as “unchanged”. Also, the “Plasmin generation by nephritic glomeruli” value in the assay on nephritic glomeruli is recorded as “significantly elevated”. Moreover, the “percentage of the glomerular area with positive staining, fibronectin EDA+” value with anti-Thy-1 nephritis [4] (rtPA 1 mg/kg BW i.v. twice a day day 3 to 5, day 6, disease control 19±2, p<0.01) was found to be 14±1%. Besides, the “percentage of the glomerular area with positive staining, type IV collagen” value with anti-Thy-1 nephritis [4] (rtPA 1 mg/kg BW i.v. twice a day day 3 to 5, day 6, disease control 27±2, p<0.01) came out at 23±1%. Further, in the assay on anti-Thy-1 nephritis [4] (rtPA 1 mg/kg BW i.v. twice a day day 3 to 5, day 6, disease control 33±1, p<0.001), the “percentage of the glomerular area with positive staining, type I collagen” value is on record as 21±3%. Besides, the “percentage of the glomerular area with positive staining, laminin” value in the assay on anti-Thy-1 nephritis [4] (rtPA 1 mg/kg BW i.v. twice a day day 3 to 5, day 6, disease control 35±2, p<0.001) turned out to be 25±2%. For the same molecule, in the assay on anti-Thy-1 nephritis [4] (tPA vs control, FIG. 8), the “matrix accumulated in glomeruli” value was “overall decrease in matrix accumulated”.

B1: HrRenin: Human recombinant renin (Hoffman-La Roche) (protein, UniProt P00797 67-406, looked up)
Renin: LTLGNTTSSVILTNYMDTQYYGEIGIGTPPQTFKVVFDTGSSNVWVPSSKCSRLYTACVYHKLFDASDSSSYKHNGTELTLRYSTGTVSGFLSQDIITVGGITVTQMFGEVTEMPALPFMLAEFDGVVGMGFIEQAIGRVTPIFDNIISQGVLKEDVFSFYYNRDSENSQSLGGQIVLGGSDPQHYEGNFHYINLIKTGVWQIQMKGVSVGSSTLLCEDGCLALVDTGASYISGSTSSIEKLMEALGAKKRLFDYVVKCNEGPTLPDISFHLGGKEYTLTSADYVFQESYSSKKLCTLAIHAMDIPPPTGPTWALGATFIRKFYTEFDRRNNRIGFALAR
On to B1, for which, in assay [1] (setting [5]), the “increase in Fn production” value turned out to be 1.4 fold and the “increase in TGFβ production” value stood at 2 fold. The “TGFβ and Fn production, time course” value in assay [1] (10^−7M HrRenin, 24 and 48 hours, p<0.03) is “significant increases in TGFβ and Fn production at 24 and 48 hours”. Besides, the “TGFβ production by cultured human mesangial cells” value in assay [2] (renin 10^−6 to 10^−12 M, 24 hrs, FIG. 2) was “increases the TGFβ production by cultured human mesangial cells in a dose-dependent manner”.
